Experimental data published in patent publication US20140343017A1, “PYRROLE COMPOUND” (Kabushiki Kaisha Yakult Honsha, priority 2012, published 2014).

Assays:
Assay in all cases: Inhibitory effect on growth of human cancer cells (in vitro), WST-8
Assay type in all cases: cell-based
[1] = tested on: human colorectal cancer HCT116 cells; details: Homo sapiens, HCT-116, 96 h, 96 hours culture
Description: (§1) Each pyrrole compound of the present invention was studied for its effects on the growth of human non-small cell lung cancer A549 cells and human colorectal cancer HT-29 cells and HCT116 cells. The cells of each line were suspended in an RPMI1640 medium supplemented with 10% fetal bovine serum and inoculated at a cell density of 1000 cells/50 μL/well to a 96-well plate. After overnight culture, each compound diluted with a medium was added thereto at a concentration of 50 μL/well, and the cells were further cultured for 96 hours. After the completion of culture, WST-8 (Seikagaku Corp.) was added thereto at a concentration of 10 μL/well, and the cells were cultured at 37° C. for approximately 1 hour under 5% CO2 conditions, followed by measurement of absorbance at 450 nm.

[2] = tested on: human colorectal cancer HT-29 cells; details: Homo sapiens, HT-29, 96 h, 96 hours culture, read-out: IC50 (nM) HT29
Description: as §1

[3] = tested on: human non-small cell lung cancer A549 cells; details: Homo sapiens, A549, 96 h, 96 hours culture
Description: as §1

IC50 [1]	IC50 [2]	IC50 [3]	SMILES
182 nM	43.3 nM	87.8 nM	Cc1[nH]c(-c2nnn(CCN)n2)c(C)c1C(=O)c1cccc(Br)c1 [Compound 103, (5-(2-(2-aminoethyl)-2H-tetrazol-5-yl)-2,4-dimethyl-1H-pyrrol-3-yl)(3-bromophenyl)methanone]
8.5 nM	8.5 nM	11 nM	CC(=O)OCCn1nnc(-c2[nH]c(C)c(C(=O)c3cccc(Br)c3)c2C)n1 [Compound 104, 2-(5-(4-(3-bromobenzoyl)-3,5-dimethyl-1H-pyrrol-2-yl)-2H-tetrazol-2-yl)ethyl acetate]
41 nM	42.5 nM	49.2 nM	Cc1[nH]c(-c2nnn(CCO)n2)c(C)c1C(=O)c1cccc(C2CC2)c1 [Compound 115, (3-cyclopropylphenyl)(5-(2-(2-hydroxyethyl)-2H-tetrazol-5-yl)-2,4-dimethyl-1H-pyrrol-3-yl)methanone]
118 nM	42.1 nM	83 nM	Cc1c(-c2nnn(CCO)n2)[nH]c(C=O)c1C(=O)c1cccc(Br)c1 [Compound 117, 3-(3-bromobenzoyl)-5-(2-(2-hydroxyethyl)-2H-tetrazol-5-yl)-4-methyl-1H-pyrrole-2-carboaldehyde]
145 nM	42.6 nM	50.1 nM	Cc1c(-c2nnn(CCO)n2)[nH]c(C(F)F)c1C(=O)c1cccc(Br)c1 [Compound 119, (3-bromophenyl)(2-(difluoromethyl)-5-(2-(2-hydroxyethyl)-2H-tetrazol-5-yl)-4-methyl-1H-pyrrol-3-yl)methanone]
37.8 nM	30.4 nM	38.6 nM	COc1ccc(C(=O)c2c(C=O)[nH]c(-c3nnn(CCOC(C)=O)n3)c2C)cc1Br [Compound 124, 2-(5-(4-(3-bromo-4-methoxybenzoyl)-5-formyl-3-methyl-1H-pyrrol-2-yl)-2H-tetrazol-2-yl)ethyl acetate]
93.2 nM	35.2 nM	45.8 nM	COc1ccc(C(=O)c2c(C=O)[nH]c(-c3nnn(CCO)n3)c2C)cc1Br [Compound 125, 3-(3-bromo-4-methoxybenzoyl)-5-(2-(2-hydroxyethyl)-2H-tetrazol-5-yl)-4-methyl-1H-pyrrole-2-carboaldehyde]
38.2 nM	33.1 nM	38.2 nM	COc1ccc(C(=O)c2c(C(F)F)[nH]c(-c3nnn(CCOC(C)=O)n3)c2C)cc1Br [Compound 126, 2-(5-(4-(3-bromo-4-methoxybenzoyl)-5-(difluoromethyl)-3-methyl-1H-pyrrol-2-yl)-2H-tetrazol-2-yl)ethyl acetate]
40.4 nM	36.9 nM	44.7 nM	COc1ccc(C(=O)c2c(C(F)F)[nH]c(-c3nnn(CCO)n3)c2C)cc1Br [Compound 127, (3-bromo-4-methoxyphenyl)(2-(difluoromethyl)-5-(2-(2-hydroxyethyl)-2H-tetrazol-5-yl)-4-methyl-1H-pyrrol-3-yl)methanone]
22.4 nM	27.4 nM	27.8 nM	COc1ccc(C(=O)c2c(CO)[nH]c(-c3nnn(CCOC(C)=O)n3)c2C)cc1Br [Compound 128, 2-(5-(4-(3-bromo-4-methoxybenzoyl)-5-(hydroxymethyl)-3-methyl-1H-pyrrol-2-yl)-2H-tetrazol-2-yl)ethyl acetate]
41.2 nM	34.2 nM	46.9 nM	COc1ccc(C(=O)c2c(CO)[nH]c(-c3nnn(CCO)n3)c2C)cc1Br [Compound 129, (3-bromo-4-methoxyphenyl)(5-(2-(2-hydroxyethyl)-2H-tetrazol-5-yl)-2-(hydroxymethyl)-4-methyl-1H-pyrrol-3-yl)methanone]
36.9 nM	30.7 nM	35.5 nM	COc1ccc(C(=O)c2c(C(C)O)[nH]c(-c3nnn(CCOC(C)=O)n3)c2C)cc1Br (stereo not drawn) [Compound 130, 2-(5-(4-(3-bromo-4-methoxybenzoyl)-5-(1-hydroxyethyl)-3-methyl-1H-pyrrol-2-yl)-2H-tetrazol-2-yl)ethyl acetate]
90.9 nM	34.8 nM	45.1 nM	COc1ccc(C(=O)c2c(C(C)O)[nH]c(-c3nnn(CCO)n3)c2C)cc1Br (stereo not drawn) [Compound 131, (3-bromo-4-methoxyphenyl)(2-(1-hydroxyethyl)-5-(2-(2-hydroxyethyl)-2H-tetrazol-5-yl)-4-methyl-1H-pyrrol-3-yl)methanone]
167 nM	179 nM	248 nM	CC(=O)OCCn1nnc(-c2[nH]c(C#N)c(C(=O)c3cccc(Br)c3)c2C)n1 [Compound 132, 2-(5-(4-(3-bromobenzoyl)-5-cyano-3-methyl-1H-pyrrol-2-yl)-2H-tetrazol-2-yl)ethyl acetate]
158 nM	192 nM	238 nM	Cc1c(-c2nnn(CCO)n2)[nH]c(C#N)c1C(=O)c1cccc(Br)c1 [Compound 133, 3-(3-bromobenzoyl)-5-(2-(2-hydroxyethyl)-2H-tetrazol-5-yl)-4-methyl-1H-pyrrole-2-carbonitrile]
186 nM	156 nM	278 nM	COC(=O)c1[nH]c(-c2nnn(CCO)n2)c(C)c1C(=O)c1cccc(Br)c1 [Compound 137, methyl 3-(3-bromobenzoyl)-5-(2-(2-hydroxyethyl)-2H-tetrazol-5-yl)-4-methyl-1H-pyrrole-2-carboxylate]
167 nM	170 nM	239 nM	COc1ccc(C(=O)c2c(C#N)[nH]c(-c3nnn(CCOC(C)=O)n3)c2C)cc1Br [Compound 138, 2-(5-(4-(3-bromo-4-methoxybenzoyl)-5-cyano-3-methyl-1H-pyrrol-2-yl)-2H-tetrazol-2-yl)ethyl acetate]
171 nM	174 nM	245 nM	COc1ccc(C(=O)c2c(C#N)[nH]c(-c3nnn(CCO)n3)c2C)cc1Br [Compound 139, 3-(3-bromo-4-methoxybenzoyl)-5-(2-(2-hydroxyethyl)-2H-tetrazol-5-yl)-4-methyl-1H-pyrrole-2-carbonitrile]
219 nM	232 nM	306 nM	CNC(=O)c1[nH]c(-c2nnn(CCO)n2)c(C)c1C(=O)c1ccc(OC)c(Br)c1 [Compound 149, 3-(3-bromo-4-methoxybenzoyl)-5-(2-(2-hydroxyethyl)-2H-tetrazol-5-yl)-N,4-dimethyl-1H-pyrrole-2-carboxamide]
181 nM	145 nM	192 nM	COc1ccc(C(=O)c2c(C(N)=O)[nH]c(-c3nnn(CCO)n3)c2C)cc1Br [Compound 150, 3-(3-bromo-4-methoxybenzoyl)-5-(2-(2-hydroxyethyl)-2H-tetrazol-5-yl)-4-methyl-1H-pyrrole-2-carboxamide]
7.8 nM	8.3 nM	10.8 nM	Cc1[nH]c(-c2nnn(CCOC(=O)CN)n2)c(C)c1C(=O)c1cccc(Br)c1 [Compound 152, 2-(5-(4-(3-bromobenzoyl)-3,5-dimethyl-1H-pyrrol-2-yl)-2H-tetrazol-2-yl)ethyl 2-aminoacetate]
67.5 nM	73.8 nM	305 nM	Cc1[nH]c(-c2nnn(CCO)n2)c(C)c1C(=O)c1cccc(CO)c1 [Compound 163, (5-(2-(2-hydroxyethyl)-2H-tetrazol-5-yl)-2,4-dimethyl-1H-pyrrol-3-yl)(3-(hydroxymethyl)phenyl)methanone]
